According to US8841269B2, “Polynucleotides for use in treating and diagnosing cancers” (Creighton University, priority 2010, dated 2014):
Entries after “also recorded” stand apart in the source; their conditions may differ.

Tests used:
[1] = test system: 3′ UTR of human ER-α gene; assay: Luciferase reporter assay, ER-α 3′ UTR let-7 binding site in pMIR-REPORT; format: cell-based; settings: MCF7 cells
Source text: Luciferase assay. A fragment of the 3′ UTR of human ER-α gene, which contains the putative let-7 target sites, was synthesized (IDT technology). With attached SpeI and HindIII restriction sites, the fragments are 48 by long. The sense strand was 5′-[…] (SEQ ID NO:39) while the antisense strand was 5′-[…] (SEQ ID NO:40). The cloning and transfection followed previous protocol (Hu et al., 2009, J Immunol 183:1617-24). Sixty nanomolar let-7 mimics, anti-let-7 inhibitors, pre-miR negative control #1 (AM17110, Ambion), or anti-miR negative control #1 (AM17010, Ambion) were transfected together with a 0.25 μg luciferase construct and a 0.25 μg β-galactosidase plasmid, which were used as a normalization reference. After 24 hour post-transfection, the luciferase activity was measured in a Veritas Microplate Luminometer (Turner Biosystems). Every treatment had 3 replicates. The luciferase activity was expressed as a fraction of negative control.

ER-α = assay: Immunoblot of ER-α after transfection in MCF7; format: cell-based, human; settings: MCF7, mimics 60 nmol/L
Source text: (§1) Immunoblot analysis. For Western blot in FFPE tissues, an established method was followed (Addis et al., 2009, Proteomics 9:3815-23). For MCF7 cell line, let-7 mimics and negative control miRNA (60 nmol/L), or let-7 inhibitors and anti-miR negative control (60 nmol/L) were transfected following the protocol of siPORT NeoFX Transfection Agent (Applied Biosystems), The Western blot procedure was described before (Zhang et al., 2010, J Proteome Res., 9(2):980-989). Antibody information is as follows: ER-α, RB-9016-P1, Thermoscientific; Cyclin D1, sc-8396, Santa Cruz; pS2, ab80782 was Abeam; β-Actin, sc-69879, Santa Cruz.

ER-α mRNA = assay: Real-time PCR of ER-α mRNA after transfection in MCF7; format: cell-based, human; settings: MCF7, mimics, after 6 days
Method: For real-time PCR on the expression of ER-α, total RNA was extracted using Trizol reagent (Invitrogen). One microgram RNA was used for cDNA synthesis following the protocol of SuperScript III First-Strand Synthesis System (Invitrogen). After 10 times dilution, 4 μL cDNA was used in a 20 μL reaction volume, which included 4 μL of 1.5 μM primers, 2 μL of 2 μM probes, and 10 μL master mix (Applied Biosystems). β-actin was the internal control. The oligos for ER-α are: forward primer, 5′-GCGGCCACGGACCAT (SEQ ID NO:17); reverse primer, 5′-[…] (SEQ ID NO:18); probe, 5′-FAM-[…]-TAMRA (SEQ ID NO:19).
(§2) For FFPE tissues, there was the same repeat number as in microarray; for cell lines, there were three biological repeats. Each sample had three technical repeats on the PCR plate. Real-time PCR was performed on an Applied Biosystems 7900HT real-time PCR instrument. PCR was initiated by two holds of 52° C. 2 min and 94° C. 10 min each, followed by 40 cycles of 15 s at 95° C. and 1 min at 60° C.

[2] = Real-time PCR quantification of mature let-7 after mimic transfection in MCF7; format: cell-based, human; settings: MCF7, relative quantity against RNU48
Method: Quantitative real-time PCR. For miRNA quantification in FFPE tissues, total RNA was extracted as described above; for miRNA quantification in cell lines, total RNA was isolated using mirVana miRNA Isolation Kit (Ambion Inc.). cDNA was synthesized by using 100 ng total RNA in a reaction volume of 15 μL, by following the protocol of Taqman miRNA Reverse Transcription Kit (Applied Biosystems). After 15 times dilution, 9 μL cDNA was used for real-time PCR in a 20 μL reaction volume, including 10 μL of master mix and 1 μL Taqman probe (Applied Biosystems). This reaction system only detects mature miRNAs not pre-miRNAs. The level of each miRNA was expressed following the 2^−ΔΔCt or […] method using the small nuclear RNA, RNU48, as the internal reference.
as §2

cyclin D1 = assay: Immunoblot of cyclin D1 after transfection in MCF7; format: cell-based, human; settings: MCF7, mimics
Source text: as §1

pS2 = assay: Immunoblot of pS2 after transfection in MCF7; format: cell-based, human; settings: MCF7, mimics
Source text: as §1

[3] = test system: estrogen response element (ERE) construct; assay: ERE luciferase assay (2 ERE-tk-Luc), genomic estrogen pathway in MCF7; format: cell-based, human
Method: For checking on the genomic estrogen pathway, 10^5 MCF7 cells were first seeded into each well on a 24-well plate and cultured in IMEM with 2.5% charcoal-stripped FBS for 2 days. Then the cells were transfected as described above except that the estrogen response element (ERE) construct (2 ERE-tk-Luc; obtained from Katarine Pettersson, Karolinska Institute, Stockholm) replaced the pMIR-REPORT plasmid for 1 day. After stimulation with 10 nmol/L E2 for 12 hours, luciferase activity was measured as described above.

MCF7 cells [4] = assay: MTT cell proliferation assay in MCF7; format: cell-based, human
Method: (§3) MTT cell proliferation assay. MCF7 cells were transfected with let-7 mimics or negative controls (60 nmol/L) in normal growth medium for 1 day, or in medium with 2.5% charcoal-stripped FBS for 2 days to exhaust endogenous estrogen, following the protocol of siPORT NeoFX Transfection Agent (Applied Biosystems). For the experiment in normal growth medium, 10^4 cells in the volume of 100 μL were seeded in a 96-well plate for 12 hours and assay lasted for another 4 days. For experiments in E2 free medium, 1.5 10^4 cells were seeded in a 96-well plate for 12 hours and then exposed to 10 nmol/L E2, or not, for up to 4 days. For both experiments, each treatment had 12 replicates on the plate. The cells were then incubated in 0.83 mg/mL 3-[4,5-dimethylthiazol-2-yl]-2,5-diphenyltetrazolium bromide (MTT) in growth medium at 37° C. for 4 h and lysed in 100 μL of DMSO at room temperature for 15 min. The absorbance in each well was measured at 490 nm by an ELx800 Absorbance Microplate Reader (Biotek). Cell proliferation was normalized to day 0.

[5] = test system: ER-α negative MDA-MB-231 cell line; assay: MTT cell proliferation assay in MDA-MB-231; format: cell-based, human; settings: MDA-MB-231, DMEM with 10% FBS
Method: FIG. 10. The effects of let-7a, let-7b, and let-7i miRNAs on cell proliferation in ER-α negative MDA-MB-231 cell line. Cancer cell proliferation was monitored by MTT assays in the same way as in MCF7 cell line except MDA-MB-231 cells were grown in DMEM with 10% FBS.
as §3

MCF7 cells [6] = assay: Annexin-V binding assay for apoptosis in MCF7; format: cell-based, human; settings: MCF7, after either 3 days or 6 days
Method: Annexin-V binding assay for apoptosis. […] The staining followed the protocol of FITC Annexin V Apoptosis Detection Kit I (Cat #556547, BD Biosciences). Cell populations were analyzed with a BD FACSAria™ flow cytometer. Approximately 20,000 cells were counted for each sample.

## let-7a: let-7a miRNA (mimic), 3′-UUGAUAUGUUGGAUGAUGGAGU-5′ (SEQ ID NO:7) (chemistry not given here; listed 3' to 5')
[1]; 60 nmol/L mimics, vs negative control miRNA
  luciferase activity, ER-α binding site in 3′UTR of luciferase: decreased the luciferase activity; also recorded: significantly inhibited the luciferase activity
[1]; mutated sequence in 3′UTR of luciferase
  luciferase activity, mutated ER-α binding sequence: abrogated the effects; also recorded: did not show inhibition
ER-α; after 2 days
  expression of ER-α (protein): significantly depressed the expression of ER-α
ER-α; after 6 days
  expression of ER-α (protein): modest effect
ER-α mRNA
  ER-α mRNA expression: relieved
[2]
  rank of forced expression throughout the time course: lowest expression
Cyclin D1; after 2 days
  expression of cyclin D1 (protein): significantly inhibited
Cyclin D1; after 6 days
  protein expression of cyclin D1: affected neither
pS2; after 2 days
  expression of pS2 (protein): significantly inhibited
pS2; after 6 days
  protein expression of pS2: affected neither
[3]; MCF7, p2 ERE-tk-Luc, 10 nmol/L E2 12 hours, p<0.01
  ERE luciferase activity: about 60 % of negative control
[3]; MCF7 cell line
  luciferase activity of the ERE construct: inhibit the luciferase activity of the ERE construct
MCF7 cells [4]; MCF7, E2 free medium with addition of 10 nmol/L E2
  cell growth (MTT) with E2: least inhibition
MCF7 cells [4]; MCF7, E2 free medium with or without addition of 10 nmol/L E2 (FIG. 9B-D)
  cell growth (MTT): slightly inhibited
MCF7 cells [4]; MCF7, normal growth medium, 60 nmol/L
  cell proliferation (MTT): did not show a significant effect
[5]
  cell growth (MTT): None of three miRNAs significantly inhibited cell growth
MCF7 cells [6]
  effect on apoptosis: not significant
